Consider 20 compounds from US20250161473A1, “EXATECAN DERIVATIVE-ANTIBODY CONJUGATE AND MEDICAL USE THEREOF” (Gan & Lee Pharmaceuticals Co., Ltd., priority 2022, published 2025).

Molecules are shown by their SMILES.

In the first test the test system is MDA-MB-468 cell line with high TROP-2 expression. Briefly: Inhibition test of Exatecan derivatives (payload) on in vitro proliferation of tumor cells. Conditions: Homo sapiens, 72 h; MDA-MB-468 cells, 3 days, CellTiter-Glo; read-out: IC50 of MDA-MB-468 cell proliferation inhibition in vitro. Type of test: cell-based, human. The method, then:
The cell line used in this experiment is the MDA-MB-468 cell line with high TROP-2 expression (Nanjing Cobioer Biosciences Co., Ltd., catalog number: CBP60387). Prepare cell suspension with fresh cell culture medium containing 10% FBS at a density of 3×10^3 cells/mL, add 90 μL per well into an all-white 96-well cell culture plate (Beyotime, item number: FCP968-80pcs), 5% carbon dioxide 37° C. for 24 h. Compounds 1-36 were formulated with DMSO to 1 mM, respectively. Add 20 μL of different samples to be tested in the first column of the 96-well U-bottom dispensing plate, and the sample concentration is 1000 uM; add 20 μL DMSO to each well of the second to tenth columns. Take 5 μL of the sample from the first column to 20 μL DMSO in the second column, mix well, take 5 μL to the third column, and so on to the ninth column. Take 5 μL of the medicine from each well of the dispensing plate to 95 μL of DMEM medium, and mix well. Add 10 μL of prepared samples to be tested at different concentrations to the culture plate, and duplicate wells for each sample. 5% carbon dioxide and cultured at 37° C. for 3 days. Add 50 μL of CTG (CellTiter-Glo® Luminescent Cell Viability Assay, Promega, item number: G7573) to each well, mix on a shaker at room temperature for 30 minutes, incubate for 10 minutes, and read chemiluminescence on a microplate reader (TECAN, Spark). Graphpad Prism 8 software used for data analysis.
(Cellular ATP, detected with luciferase, serves as a proxy for viable cell number.)
In the case of `CC[C@@]1(O)C(=O)OCc2c1cc1n(c2=O)Cc2c-1nc1cc(F)c(C)c3c1c2[C@@H](NC(=O)Cc1cccc(N)c1)CC3` [Compound 23], the IC50 amounted to 2.64 nM.

Still in this test, the particulars now being: Homo sapiens, MDA-MB-468, 72 h, read-out: IC50 of MDA-MB-468 cell proliferation inhibition in vitro.
In the case of `CC[C@@]1(O)C(=O)OCc2c1cc1n(c2=O)Cc2c-1nc1cc(F)c(C)c3c1c2[C@@H](NC(=O)C1CNC1)CC3` [Compound 1], the IC50 was found to be 135 nM.

In the case of `CC[C@@]1(O)C(=O)OCc2c1cc1n(c2=O)Cc2c-1nc1cc(F)c(C)c3c1c2[C@@H](NC(=O)Cc1ccc(N)cc1)CC3` [Compound 2], the IC50 is 3.38 nM.

As to `CC[C@@]1(O)C(=O)OCc2c1cc1n(c2=O)Cc2c-1nc1cc(F)c(C)c3c1c2[C@@H](NC(=O)Cc1ccc(NC(=O)CO)cc1)CC3` [Compound 3], the IC50 is 43.6 nM.

Consider `CC[C@@]1(O)C(=O)OCc2c1cc1n(c2=O)Cc2c-1nc1cc(F)c(C)c3c1c2[C@@H](NC(=O)[C@@H]1CCCN1)CC3` [Compound 4], for which the IC50 came to 4.32 nM.

`CC[C@@]1(O)C(=O)OCc2c1cc1n(c2=O)Cc2c-1nc1cc(F)c(C)c3c1c2[C@@H](NC(=O)[C@@H]1CCCN1C(=O)CO)CC3` [Compound 5]: the IC50 worked out at 19.3 nM.

In the case of `CC[C@@]1(O)C(=O)OCc2c1cc1n(c2=O)Cc2c-1nc1cc(F)c(C)c3c1c2[C@@H](NC(=O)c1ccc(O)c(Cl)c1)CC3` [Compound 6], the IC50 is 9.81 nM.

Take `CC[C@@]1(O)C(=O)OCc2c1cc1n(c2=O)Cc2c-1nc1cc(F)c(C)c3c1c2[C@@H](NC(=O)c1ccc(Cl)c(O)c1)CC3` [Compound 7]: the IC50 amounted to 9.45 nM.

With `CC[C@@]1(O)C(=O)OCc2c1cc1n(c2=O)Cc2c-1nc1cc(F)c(C)c3c1c2[C@@H](NC(=O)NCC(F)(F)F)CC3` [Compound 8], the IC50 was found to be 2.72 nM.

Regarding `CC[C@@]1(O)C(=O)OCc2c1cc1n(c2=O)Cc2c-1nc1cc(F)c(C)c3c1c2[C@@H](NC(=O)N[C@H]1CCCNC1)CC3` [Compound 12], the IC50 worked out at 56.2 nM.

`CC[C@@]1(O)C(=O)OCc2c1cc1n(c2=O)Cc2c-1nc1cc(F)c(C)c3c1c2[C@@H](NC(=O)N[C@H]1CCNC1)CC3` [Compound 13]: the IC50 was 76.5 nM.

For the compound `CC[C@@]1(O)C(=O)OCc2c1cc1n(c2=O)Cc2c-1nc1cc(F)c(C)c3c1c2[C@@H](NC(=O)N[C@@H]1CCNC1)CC3` [Compound 14], the IC50 was 48 nM.

For the compound `CC[C@@]1(O)C(=O)OCc2c1cc1n(c2=O)Cc2c-1nc1cc(F)c(C)c3c1c2[C@@H](NC(=O)Cc1ccc(N)cc1OC)CC3` [Compound 19], the IC50 turned out to be 7.52 nM.

For the compound `CC[C@@]1(O)C(=O)OCc2c1cc1n(c2=O)Cc2c-1nc1cc(F)c(C)c3c1c2[C@@H](NC(=O)Cc1ccc(N)cc1F)CC3` [Compound 21], the IC50 was found to be 3.05 nM.

For `CC[C@@]1(O)C(=O)OCc2c1cc1n(c2=O)Cc2c-1nc1cc(F)c(C)c3c1c2[C@@H](NC(=O)Cc1ccc(O)cc1)CC3` [Compound 22], the IC50 was found to be 2.6 nM.

Take `CC[C@@]1(O)C(=O)OCc2c1cc1n(c2=O)Cc2c-1nc1cc(F)c(C)c3c1c2[C@@H](NC(=O)Cc1ccccc1N)CC3` [Compound 24]: the IC50 was 1.65 nM.

Consider `CC[C@@]1(O)C(=O)OCc2c1cc1n(c2=O)Cc2c-1nc1cc(F)c(C)c3c1c2[C@@H](NC(=O)CCc1ccc(N)cc1)CC3` [Compound 25], for which the IC50 came out at 8.63 nM.

`CC[C@@]1(O)C(=O)OCc2c1cc1n(c2=O)Cc2c-1nc1cc(F)c(C)c3c1c2[C@@H](NC(=O)CCCc1ccc(N)cc1)CC3` [Compound 26]: the IC50 came to 3.28 nM.

With `CC[C@@]1(O)C(=O)OCc2c1cc1n(c2=O)Cc2c-1nc1cc(F)c(C)c3c1c2[C@@H](NC(=O)C1CCNCC1)CC3` [Compound 31], the IC50 was found to be 136 nM.

The same test, now with this note: MDA-MB-468 cells, 3 days, CellTiter-Glo; read-out: IC50 of MDA-MB-468 cell proliferation inhibition in vitro.
On to `CC[C@@]1(O)C(=O)OCc2c1cc1n(c2=O)Cc2c-1nc1cc(F)c(C)c3c1c2[C@@H](NC(=O)C1CCCN1)CC3` (some centres unmarked) [Compound 36], for which the IC50 came to 6.34 nM.
